According to patent US5426111A, “[Alkoxy-, alkenyloxy-, alkynyloxy-, and phenylmethyloxyalkoxycycloalkyl or alkoxycycloheteroalkyl]naphtho[2,3-c]furan-1(3H)-one inhibitors of 5-lipoxygenase” (Abbott Laboratories, priority 1994, dated 1995):

System: LTB4 biosynthesis
Experiment: Calcium ionophore-induced LTB4 biosynthesis in human whole blood
Type: cell-based
Conditions: @ 100 nm; human heparinized whole blood, calcium ionophore A23187 challenge, LTB4 by radioimmunoassay
Protocol: Inhibition of leukotriene biosynthesis was evaluated in an assay, involving calcium ionophore-induced LTB4 biosynthesis expressed human whole blood. Human heparinized whole blood was preincubated with test compounds or vehicle for 15 min at 37° C. followed by calcium ionophore A23 187 challenge (final concentration of 8.3 μM) and the reaction terminated after 30 min by adding two volumes of methanol containing prostaglandin B2 as an internal recovery standard. The methanol extract was analyzed for LTB4 using a commercially available radioimmunoassay.

Structure (SMILES): COC1(/C=C/COc2ccc3c(-c4ccc(F)cc4)c4c(cc3c2)C(=O)OC4)CCOCC1 [Example 1, 4-(4-fluorophenyl)-7-[3-(4-methoxytetrahydro-2H-pyran-4-yl)-2-propenyloxy]naptho[2,3-c]furan-1(3H)-one]
- inhibition of leukotriene biosynthesis: 55%
